According to patent US12172969B2 (EVOFEM BIOSCIENCES, INC., priority 2018, dated 2024):

How the values were obtained:
cDNA-expressed CYP2C8 = target: T1, cDNA-expressed CYP2C8 (Homo sapiens, UniProt P10632); assay: Metabolism by cDNA-expressed CYP2C8, parent remaining; conditions: 10 μM; for depletion by cDNA-expressed CYP2C8: 120 minutes
T1 sequence (P10632 1-490): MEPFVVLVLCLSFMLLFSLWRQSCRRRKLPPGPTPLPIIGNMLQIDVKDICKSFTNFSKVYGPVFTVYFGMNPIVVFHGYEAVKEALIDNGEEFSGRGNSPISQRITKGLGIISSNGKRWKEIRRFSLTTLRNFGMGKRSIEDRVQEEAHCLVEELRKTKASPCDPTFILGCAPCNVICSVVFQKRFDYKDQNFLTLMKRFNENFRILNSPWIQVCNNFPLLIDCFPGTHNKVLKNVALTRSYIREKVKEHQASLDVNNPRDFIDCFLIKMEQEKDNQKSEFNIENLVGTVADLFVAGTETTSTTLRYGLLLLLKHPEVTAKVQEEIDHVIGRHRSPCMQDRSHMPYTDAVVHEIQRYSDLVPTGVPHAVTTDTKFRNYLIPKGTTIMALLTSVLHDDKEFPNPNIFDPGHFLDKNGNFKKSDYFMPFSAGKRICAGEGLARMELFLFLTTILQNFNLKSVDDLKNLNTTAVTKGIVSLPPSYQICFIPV
Description: (§1) At two time points (0 and 120 min), the reaction was stopped by removing an aliquot and combining it with an equal volume of cold acetonitrile containing an internal standard (labetalol) and placement on ice. Samples were centrifuged to pellet the protein and the supernatant was frozen at −20° C. for subsequent analysis by LC-MS/MS.
(§2) Protein concentrations were constant for all isoforms within an experiment and standardized by the addition of control microsomes. Incubations were performed in duplicate. Incubations with vector control enzyme preparations and without enzyme source were included as negative controls.
(§3) The fraction of parent compound remaining compared to 0 min was determined based on peak area ratio (analyte/internal standard).

cDNA-expressed CYP2C9 = cDNA-expressed CYP2C9 (Homo sapiens, UniProt P11712); assay: Metabolism by cDNA-expressed CYP2C9, parent remaining; conditions: 10 μM; for depletion by cDNA-expressed CYP2C9: 120 minutes
Sequence of cDNA-expressed CYP2C9 (P11712 whole entry): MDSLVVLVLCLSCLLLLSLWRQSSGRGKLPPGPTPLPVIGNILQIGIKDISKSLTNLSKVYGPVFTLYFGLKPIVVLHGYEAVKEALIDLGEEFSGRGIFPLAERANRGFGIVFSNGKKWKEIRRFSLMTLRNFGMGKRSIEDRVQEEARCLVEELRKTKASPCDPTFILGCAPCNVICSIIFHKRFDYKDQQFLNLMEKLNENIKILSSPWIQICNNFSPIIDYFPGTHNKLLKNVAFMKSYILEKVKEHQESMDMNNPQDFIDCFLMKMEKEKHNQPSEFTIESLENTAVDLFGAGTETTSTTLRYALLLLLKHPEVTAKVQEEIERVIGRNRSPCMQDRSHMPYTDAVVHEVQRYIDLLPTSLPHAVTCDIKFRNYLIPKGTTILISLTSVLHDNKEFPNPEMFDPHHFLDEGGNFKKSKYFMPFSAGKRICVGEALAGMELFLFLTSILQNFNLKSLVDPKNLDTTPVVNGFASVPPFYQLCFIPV
Description: as §1, §2, §3

[1] = in vivo; cited from earlier work
[2] = tested on: cDNA-expressed CYP1A2, CYP2A6, CYP2B6, CYP2C8, CYP2C9, CYP2C19, CYP2D6, CYP2E1, CYP3A4, and CYP3A5; assay: Metabolism by cDNA-expressed human CYP enzymes (all isoforms), parent remaining by LC-MS/MS; conditions: 1.0 μM and 10 μM, 120 minutes incubation, 37° C., compared to 0 min
Description: as §1, §2
All other positive controls were assayed at one concentration in duplicate in accordance with the methods described above. The percent of parent remaining at the end of the incubation was compared to 0 min based on the peak area ratio of the substrate and internal standard.
as §3

Compound: Cc1ncc([N+](=O)[O-])n1CC(C)O (stereo not drawn) [secnidazole, 1-(2-methyl-5-nitro-1H-imidazol-1-yl) propan-2-ol, reference compound]
- percent of parent remaining (cDNA-expressed CYP2C8; human, 2 h, pH 7.4): 82%
- percent of parent remaining (cDNA-expressed CYP2C9; human, 2 h, pH 7.4): 79%
- excreted intact in the urine [1]: 50%

Compound: α,2-dimethyl-5-nitro-1H-imidazole-1-ethanol-d3 [secnidazole-d3]
- average percent of parent compound remaining for all isoforms and concentrations [2]: greater than 96%
- depletion by cDNA-expressed CYP2C8 (cDNA-expressed CYP2C8): did not demonstrate any depletion
- depletion by cDNA-expressed CYP2C9 (cDNA-expressed CYP2C9): did not demonstrate any depletion

Compound: α,2-dimethyl-5-nitro-1H-imidazole-1-ethanol-d6 [secnidazole-d6]
- average percent of parent compound remaining for all isoforms and concentrations [2]: less than 100%
- depletion by cDNA-expressed CYP2C8 (cDNA-expressed CYP2C8): did not demonstrate any depletion
- depletion by cDNA-expressed CYP2C9 (cDNA-expressed CYP2C9): did not demonstrate any depletion
